In PMC12562854, “Resin Glycosides with α-Glucosidase and Protein Tyrosine Phosphatase 1B Inhibitory Activities from the Seeds of Cuscuta japonica” (Biomolecules, 2025):
Like-named read-outs stand apart in the source and are kept apart here.

Experiments:
[1] = molecular target: T1, α-glucosidase (Saccharomyces cerevisiae, UniProt P53341); assay: α-Glucosidase inhibitory assay (pNPG hydrolysis); type: biochemical; conditions: for inhibition at 100 µM: read-out: α-Glucosidase Inhibition (%)
T1 construct: purchased Sigma-Aldrich Inc
T1 sequence (P53341 whole entry): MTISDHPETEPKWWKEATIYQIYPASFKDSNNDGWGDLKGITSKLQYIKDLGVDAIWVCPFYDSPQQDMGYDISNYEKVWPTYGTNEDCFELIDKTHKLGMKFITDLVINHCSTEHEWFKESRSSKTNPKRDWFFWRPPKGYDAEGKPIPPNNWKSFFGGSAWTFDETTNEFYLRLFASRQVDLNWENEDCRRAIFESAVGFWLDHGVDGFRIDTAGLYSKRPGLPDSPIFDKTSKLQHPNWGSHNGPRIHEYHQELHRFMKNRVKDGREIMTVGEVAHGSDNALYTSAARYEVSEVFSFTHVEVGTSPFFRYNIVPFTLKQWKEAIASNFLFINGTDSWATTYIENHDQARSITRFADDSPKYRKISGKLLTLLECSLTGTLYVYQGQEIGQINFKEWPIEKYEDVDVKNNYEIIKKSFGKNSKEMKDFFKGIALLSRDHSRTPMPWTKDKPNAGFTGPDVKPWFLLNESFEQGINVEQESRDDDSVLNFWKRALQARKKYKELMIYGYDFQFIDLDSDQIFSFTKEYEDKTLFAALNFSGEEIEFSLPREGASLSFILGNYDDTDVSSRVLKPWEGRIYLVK
Experimental: In brief, 140 μL of phosphate buffer (0.2 M, pH 6.8) was added to the 96-well microplate wells, followed by the addition of 10 μL α-glucosidase solution (0.5 U/mL, Sigma-Aldrich Inc., Saint Louis, MO, USA) and 2 μL of the test compound. The control wells contained 2 μL of DMSO in place of the test sample, while the enzyme solution was replaced by an additional 10 μL of phosphate buffer in the background wells. After preincubation at 37 °C for 10 min, 48 μL of 2 mM p-nitrophenyl-α-D-glucopyranoside (pNPG) was introduced into each well. The reaction mixtures were incubated for 30 min before being terminated by adding 50 μL of 0.1 M Na2CO3 solution. Absorbance was measured at 405 nm using a microplate reader. […] All assays were performed in triplicate and repeated three times independently.

[2] = molecular target: T2, PTP1B (Homo sapiens, UniProt P18031); assay: PTP1B inhibitory assay (pNPP hydrolysis); type: biochemical; conditions: for IC50: mean ± SD of three independent experiments; for inhibition at 100 µM: percent inhibition at a concentration of 100 μM
T2 construct: purchased MedChemExpress LLC
T2 sequence (P18031 1-435): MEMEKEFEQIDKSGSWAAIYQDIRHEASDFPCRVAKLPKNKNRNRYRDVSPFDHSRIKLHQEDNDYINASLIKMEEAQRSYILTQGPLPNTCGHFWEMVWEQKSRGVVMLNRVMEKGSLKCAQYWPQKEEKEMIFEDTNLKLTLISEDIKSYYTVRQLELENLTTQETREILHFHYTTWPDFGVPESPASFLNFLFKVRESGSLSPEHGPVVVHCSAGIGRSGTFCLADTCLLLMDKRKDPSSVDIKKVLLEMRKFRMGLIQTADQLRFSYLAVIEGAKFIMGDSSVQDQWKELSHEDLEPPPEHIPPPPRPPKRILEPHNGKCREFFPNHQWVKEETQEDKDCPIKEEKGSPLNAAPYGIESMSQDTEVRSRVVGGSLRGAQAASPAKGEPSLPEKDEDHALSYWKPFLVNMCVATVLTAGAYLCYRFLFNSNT
Experimental: The inhibitory activity against PTP1B was assessed via the p-nitrophenyl phosphate (pNPP) hydrolysis assay. The reaction buffer consisted of 50 mM citrate buffer (pH 6.0) supplemented with 0.1 M NaCl, 2 mM EDTA, and 1 mM DTT. Recombinant PTP1B enzyme (MedChemExpress LLC, Monmouth Junction, NJ, USA) was used at a concentration of 5 μg/mL, with 10 mM pNPP serving as the substrate. The enzymatic reaction was terminated by the addition of 1M NaOH.

[3] = molecular target: T1, α-glucosidase; assay: Enzyme reversibility and kinetics analysis, α-glucosidase; type: biochemical
Experimental: (§1) Reversibility was assessed by plotting the enzyme reaction velocity (v) against varying enzyme concentrations in the presence of different inhibitor concentrations. Lineweaver–Burk plots (1/v vs. 1/[S]) were constructed by measuring reaction velocities at multiple substrate concentrations with varying amounts of inhibitors. From these plots, inhibition type, as well as Michaelis–Menten constants Km and Vmax, were determined. Additionally, slopes and Y-intercepts of these reciprocal plots were also plotted against inhibitor concentrations to further characterize the inhibition constants Ki and Kis, respectively.

[4] = molecular target: T2, PTP1B; assay: Enzyme reversibility and kinetics analysis, PTP1B; type: biochemical
Experimental: as §1

[5] = system: α-glucosidase; conditions: cited from earlier work; for α-Glucosidase inhibition (in words): affinity-directed fractionation-mass spectrometry
[6] = read-out: α-Glucosidase IC50, mean ± SD of three independent experiments
[7] = secondary plot of Y-intercept from Lineweaver–Burk data
[8] = velocity vs enzyme concentration at different inhibitor levels

Molecule: CCCC[C@@H](CCCCCCCCCC(=O)OC)O[C@@H]1O[C@H](CO)[C@@H](O)[C@H](O)[C@H]1O[C@@H]1O[C@@H](C)[C@H](O[C@@H]2O[C@@H](C)[C@H](O[C@@H]3O[C@@H](C)[C@H](O)[C@@H](O[C@@H]4O[C@H](CO)[C@@H](O)[C@H](O)[C@H]4O)[C@H]3O)[C@@H](O)[C@H]2O)[C@@H](O)[C@H]1O [Compound 1, Cusponin I]
- IC50 [1, 6]: 38.2 ± 3.36 µM
- inhibition at 100 µM [1]: 68.7 ± 4.11%
- IC50 [2]: > 100 µM
- inhibition at 100 µM [2]: 5.41 ± 0.67%

Molecule: CCCCC[C@@H](CCCCCCCCCC(=O)OC)O[C@@H]1O[C@H](CO)[C@@H](O)[C@H](O)[C@H]1O[C@@H]1O[C@@H](C)[C@H](O[C@@H]2O[C@@H](C)[C@H](O[C@@H]3O[C@@H](C)[C@H](O)[C@@H](O[C@@H]4O[C@H](CO)[C@@H](O)[C@H](O)[C@H]4O)[C@H]3O)[C@@H](O)[C@H]2O)[C@@H](O)[C@H]1O [Compound 2, Cusponin II]
- IC50 [1]: 8.02 ± 2.9 µM
- inhibition at 100 µM [1]: 83 ± 0.84%
- IC50 [2]: > 100 µM
- inhibition at 100 µM [2]: 3.26 ± 0.16%
- Inhibition type, α-glucosidase ([3]; Lineweaver–Burk plots): uncompetitive
- Vmax of α-glucosidase in presence of inhibitor ([3]; at 16 μM compound 2 (0.115 at 0 μM)): 0.021
- Inhibition constant Kis (enzyme–substrate complex), α-glucosidase [3, 7]: 3.02 µM
- Reversibility of α-glucosidase inhibition [3, 8]: reversible

Molecule: CCCC[C@@H](CCCCCCCCCC(=O)OC)O[C@@H]1O[C@H](CO)[C@@H](O)[C@H](O)[C@H]1O[C@@H]1O[C@@H](C)[C@H](O[C@@H]2O[C@@H](C)[C@H](O[C@@H]3O[C@@H](C)[C@H](O)[C@@H](O)[C@H]3O)[C@@H](O[C@@H]3O[C@H](CO)[C@@H](O)[C@H](O)[C@H]3O)[C@H]2O)[C@@H](O)[C@H]1O [Compound 3, Cusponin III]
- IC50 [1, 6]: 64.9 ± 2.97 µM
- inhibition at 100 µM [1]: 67.1 ± 1.18%
- IC50 [2]: 14.2 ± 1.29 µM
- inhibition at 100 µM [2]: 89.2 ± 2.55%
- Inhibition type, PTP1B ([4]; Lineweaver–Burk plot): mixed-type
- Vmax of PTP1B in presence of inhibitor ([4]; at 25 μM compound 3 (0.104 at 0 μM)): 0.075
- Inhibition constant Kis (enzyme–substrate complex), PTP1B [4, 7]: 64.24 µM
- Ki ([4]; secondary plot of slope from Lineweaver–Burk data, read-out: Inhibition constant Ki (free enzyme), PTP1B): 24.8 µM
- Reversibility of PTP1B inhibition [4, 8]: reversible

Molecule: CCCC[C@@H](CCCCCCCCCC(=O)OC)O[C@@H]1O[C@H](C)[C@H](O)[C@H](O)[C@H]1O[C@@H]1O[C@@H](C)[C@H](O[C@@H]2O[C@@H](C)[C@H](O[C@@H]3O[C@@H](C)[C@H](O)[C@@H](O)[C@H]3O)[C@@H](O[C@@H]3O[C@H](CO)[C@@H](O)[C@H](O)[C@H]3O)[C@H]2O)[C@@H](O)[C@H]1O [Compound 4, Cusponin IV]
- IC50 [1, 6]: 55.5 ± 6.89 µM
- inhibition at 100 µM [1]: 66.5 ± 3.65%
- IC50 [2]: > 100 µM
- inhibition at 100 µM [2]: 15 ± 2.45%

Molecule: CCCC[C@@H](CCCCCCCCCC(=O)OC)O[C@@H]1O[C@H](C)[C@H](O)[C@H](O)[C@H]1O[C@@H]1O[C@H](CO)[C@@H](O)[C@H](O[C@@H]2O[C@H](CO)[C@@H](O)[C@H](O)[C@H]2O)[C@H]1O[C@@H]1O[C@@H](C)[C@H](OC(=O)[C@H](C)[C@@H](C)OC(=O)[C@H](C)[C@@H](C)O)[C@@H](O)[C@H]1O [Compound 5, Cusponin V]
- IC50 [1, 6]: > 100 µM
- inhibition at 100 µM [1]: 51.8 ± 1.77%
- IC50 [2]: 62.3 ± 8.61 µM
- inhibition at 100 µM [2]: 52.7 ± 4.6%

Molecule: CCCC[C@@H](CCCCCCCCCC(=O)OC)O[C@@H]1O[C@H](C)[C@H](O)[C@H](O)[C@H]1O[C@@H]1O[C@H](CO)[C@@H](O)[C@H](O[C@@H]2O[C@H](CO)[C@@H](O)[C@H](O)[C@H]2O)[C@H]1O[C@@H]1O[C@@H](C)[C@H](OC(=O)[C@H](C)[C@@H](C)O)[C@@H](O)[C@H]1O [Compound 6, Cusponin VI]
- IC50 [1, 6]: 71.4 ± 3.23 µM
- inhibition at 100 µM [1]: 60.5 ± 5.42%
- IC50 [2]: > 100 µM
- inhibition at 100 µM [2]: 29.9 ± 4.5%

Molecule: CCCC[C@@H](CCCCCCCCCC(=O)OC)O[C@@H]1O[C@H](C)[C@H](O)[C@H](O)[C@H]1O[C@@H]1O[C@H](CO)[C@@H](O)[C@H](O[C@@H]2O[C@H](CO)[C@@H](O)[C@H](O)[C@H]2O)[C@H]1O[C@@H]1O[C@@H](C)[C@H](O)[C@@H](O)[C@H]1O [Compound 7, Cusponin VII]
- IC50 [1, 6]: > 100 µM
- inhibition at 100 µM [1]: 49.4 ± 1.71%
- IC50 [2]: > 100 µM
- inhibition at 100 µM [2]: 15.9 ± 2.92%

Molecule: CCCCC[C@@H](CCCCCCCCCC(=O)OC)O[C@@H]1O[C@H](CO)[C@@H](O)[C@H](O)[C@H]1O[C@@H]1O[C@@H](C)[C@H](O[C@@H]2O[C@@H](C)[C@H](O[C@@H]3O[C@@H](C)[C@H](O)[C@@H](O)[C@H]3O)[C@@H](O[C@@H]3O[C@H](CO)[C@@H](O)[C@H](O)[C@H]3O)[C@H]2O)[C@@H](O)[C@H]1O [Compound 8, operculinic acid B methyl ester]
- IC50 [1, 6]: 65.1 ± 9.41 µM
- inhibition at 100 µM [1]: 64.6 ± 3.12%
- IC50 [2]: > 100 µM
- inhibition at 100 µM [2]: 7.78 ± 1.98%

Molecule: C[C@H]1[C@H](C)CC[C@]2(C(=O)O)CC[C@]3(C)C(=CC[C@@H]4[C@@]5(C)CC[C@H](O)C(C)(C)[C@@H]5CC[C@]43C)[C@H]12 [Ursolic acid, ursolic acid, reference compound]
- inhibition at 100 µM [2]: 90.4 ± 5.23%

Molecule: CCC[C@H]1CCCCCCCCCC(=O)O[C@H]2[C@H](O[C@H]3[C@H](O)[C@@H](C)O[C@@H](O[C@H]4[C@H](O1)O[C@H](C)[C@@H](O)[C@@H]4O)[C@@H]3O[C@@H]1O[C@@H](C)[C@H](OC(C)=O)[C@@H](O)[C@H]1O)O[C@H](C)[C@@H](O)[C@@H]2OC(=O)[C@H](C)[C@@H](C)O [albinoside VII]
- α-Glucosidase inhibition (in words) [5]: potent α-glucosidase inhibitors

Molecule: CCC[C@H]1CCCCCCCCCC(=O)O[C@H]2[C@H](OC[C@H]3O[C@@H](O[C@H]4[C@H](O1)O[C@H](C)[C@@H](O)[C@@H]4O)[C@H](O[C@@H]1O[C@@H](C)[C@H](OC(C)=O)[C@@H](O)[C@H]1O)[C@@H](O)[C@@H]3O)O[C@H](C)[C@@H](O)[C@@H]2OC(=O)[C@H](C)[C@@H](C)O [albinoside VI]
- α-Glucosidase inhibition (in words) [5]: potent α-glucosidase inhibitors

Molecule: operculinic acid A
- IC50 ([5]; from Ipomoea biflora): 78.3 µM
